Literature values as cited in patent US4181677A, “2-Benzoyl-3-alkoxy-2-alkenonitriles” (American Cyanamid Company, priority 1978, dated 1980).

Test system: joint and bone deterioration
Conditions: S. Wong et al. (1973); G. R. Bobalick et al. (1974)

In the case of `COc1ccc2c(c1)c(CC(=O)O)c(C)n2C(=O)c1ccc(Cl)cc1` [Indomethacin], the “prevention of joint and bone deterioration” value is given as “prevent joint and bone deterioration”.
